Here are results for ten compounds from ChEMBL document CHEMBL1130308, “Cytotoxicity of bis(phenylamidinium)furan alkyl derivatives in human tumour cell lines: Relation to DNA minor groove binding” (Bioorg Med Chem Lett, 1997).

Common to all, as to format: functional, cell-based
Assay [1] relates to A2780. Kind of assay: The compound was tested for cytotoxic potency against A2780R human tumor cell lines.
Assay [2] has as its system CH1. The assay can be described thus: The compound was tested for cytotoxic potency against CH1 human tumor cell lines.
Assay [3] has as its system A2780. Kind of assay: The compound was tested for cytotoxic potency against A2780 human tumor cell lines.
Assay [4] has as its system SK-OV-3. The assay can be described thus: The compound was tested for cytotoxic potency against SKOV-3 human tumor cell lines.
Assay [5] deals with A2780. The assay can be described thus: The compound was tested for cytotoxic potency against A2780 human tumor cell lines.

For orientation: IC50 means the concentration that gives 50% inhibition. Take CISPLATIN: the results for the IC50 in assay [1] (a2780), in assay [2] (ch1) and in assay [3] (a2780) were 3.3 µM, 0.1 µM and 0.3 µM, respectively.
Regarding `CCC(CC)NC(=N)c1ccc(-c2ccc(-c3ccc(C(=N)NC(CC)CC)cc3)o2)cc1`, the IC50 came out at 7.1 µM in assay [1] (Homo sapiens, A2780); 31 µM in assay [4]; 16 µM in assay [2] (Homo sapiens, CH1); 32.5 µM in assay [3] (Homo sapiens, A2780).
In the case of `CC(C)CNC(=N)c1ccc(-c2ccc(-c3ccc(C(=N)NCC(C)C)cc3)o2)cc1`, the IC50 was found to be 12 µM in assay [1] (Homo sapiens, A2780); 52 µM in assay [4]; 9 µM in assay [2] (Homo sapiens, CH1); 22.5 µM in assay [3] (Homo sapiens, A2780).
For `N=C(NC1CCCC1)c1ccc(-c2ccc(-c3ccc(C(=N)NC4CCCC4)cc3)o2)cc1` the same measures were 3.8 µM, 17 µM, 3.6 µM and 12 µM.
For `N=C(NC1CC1)c1ccc(-c2ccc(-c3ccc(C(=N)NC4CC4)cc3)o2)cc1`, the IC50 in assay [1] (Homo sapiens, A2780) was determined as 15.5 µM; in assay [4], 48 µM; in assay [2] (Homo sapiens, CH1), 18 µM; in assay [3] (Homo sapiens, A2780) it was 37 µM.
For `N=C(NC1CCC1)c1ccc(-c2ccc(-c3ccc(C(=N)NC4CCC4)cc3)o2)cc1` the same measures were 3.3 µM, 25 µM, 4.2 µM and 11 µM.
On the same counts, the results for `N=C(NC1CCCCC1)c1ccc(-c2ccc(-c3ccc(C(=N)NC4CCCCC4)cc3)o2)cc1` are 2.5 µM, 5.2 µM, 2.1 µM and 4.8 µM.
On the same counts, the results for `N=C(NCC1CC1)c1ccc(-c2ccc(-c3ccc(C(=N)NCC4CC4)cc3)o2)cc1` are 13 µM, 56 µM, 15 µM and 36 µM.
On to `N=C(N)c1ccc(-c2ccc(-c3ccc(C(=N)N)cc3)o2)cc1` [FURAMIDINE], for which the IC50 amounted to 46 µM in assay [5]; 15.5 µM in assay [1] (Homo sapiens, A2780); 42.5 µM in assay [4]; 46.5 µM in assay [2] (Homo sapiens, CH1).
Regarding `CC(C)NC(=N)c1ccc(-c2ccc(-c3ccc(C(=N)NC(C)C)cc3)o2)cc1`, the IC50 worked out at 6.4 µM in assay [1] (Homo sapiens, A2780); 20.5 µM in assay [4]; 44.5 µM in assay [2] (Homo sapiens, CH1); 38 µM in assay [3] (Homo sapiens, A2780).
